Results from the supplement of paper PMC10307832.

Key:
Experiment in all cases: relative viability (nuclei count vs DMSO), 5 days (fraction); higher = more cells survive
Masitinib + Phenformin = compound: Cc1ccc(NC(=O)c2ccc(CN3CCN(C)CC3)cc2)cc1Nc1nc(-c2cccnc2)cs1 [Masitinib] + N=C(N)NC(=N)NCCc1ccccc1 [Phenformin] (partner 250 µM)
Method in brief: (§1)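 Relative viability equals treated-well nuclei counts divided by vehicle-well nuclei counts. Counts came from 4× images of lung cancer cell lines grown in 1536-well plates for 5 days after pin-tool dosing on the day after seeding. Dosing used one drug alone or a fixed anchor-drug dose plus five library-drug doses (not always all listed) in √10 steps, and values are medians of duplicate plates.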

[1] = compound: CC1=CC(=CC=C1)NC2=NC(=CS2)C3=CC=NC=C3 + CC(C)C[C@H](NC(=O)[C@H](Cc1ccccc1)NC(=O)c1cnccn1)B(O)O [Bortezomib] (partner 0.002 µM)
Method in brief: as §1

[2] = compound: CC1=CC(=CC=C1)NC2=NC(=CS2)C3=CC=NC=C3 + O=C(CCCCCCC(=O)Nc1ccccc1)NO [Vorinostat] (partner 1 µM)
Method in brief: as §1

Masitinib + AZD7762 = compound: Cc1ccc(NC(=O)c2ccc(CN3CCN(C)CC3)cc2)cc1Nc1nc(-c2cccnc2)cs1 [Masitinib] + NC(=O)Nc1cc(-c2cccc(F)c2)sc1C(=O)N[C@H]1CCCNC1 [AZD7762] (partner 0.2 µM)
Method in brief: as §1

Row | Cell Line | relative viability (Masitinib + Phenformin; first compound 0.01 µM) | relative viability (Masitinib + Phenformin; first compound 0.03162 µM) | relative viability (Masitinib + Phenformin; first compound 0.1 µM) | relative viability (Masitinib + Phenformin; first compound 0.3162 µM) | relative viability (Masitinib + Phenformin; first compound 1 µM) | relative viability ([1]; first compound 0.08 µM) | relative viability ([1]; first compound 0.253 µM) | relative viability ([1]; first compound 0.8 µM) | relative viability ([1]; first compound 2.53 µM) | relative viability ([1]; first compound 8 µM) | relative viability ([2]; first compound 0.08 µM) | relative viability ([2]; first compound 0.253 µM) | relative viability ([2]; first compound 0.8 µM) | relative viability ([2]; first compound 2.53 µM) | relative viability ([2]; first compound 8 µM) | relative viability (Masitinib + AZD7762; first compound 0.01 µM) | relative viability (Masitinib + AZD7762; first compound 0.03162 µM) | relative viability (Masitinib + AZD7762; first compound 0.1 µM) | relative viability (Masitinib + AZD7762; first compound 0.3162 µM) | relative viability (Masitinib + AZD7762; first compound 1 µM)
1 | NCI-H1563 | 0.631 | 0.701 | 0.689 | 0.684 | 0.643 | 0.794 | 0.842 | 0.808 | 0.836 | 0.59 |  |  |  |  |  |  |  |  |  | 
2 | COR-L23 | 0.415 | 0.434 | 0.507 | 0.428 | 0.417 | 1.01 | 0.913 | 0.779 | 0.924 | 0.595 | 0.251 | 0.422 | 0.317 | 0.375 | 0.36 |  |  |  |  | 
3 | SW 900 | 0.652 | 0.609 | 0.706 | 0.448 | 0.436 |  |  |  |  |  | 0.433 | 0.357 | 0.516 | 0.33 | 0.188 | 0.664 | 0.548 | 0.568 | 0.574 | 0.576
4 | NCI-H1648 |  |  |  |  |  |  |  |  |  |  | 0.279 | 0.455 | 0.548 | 0.422 | 0.349 | 0.567 | 0.678 | 0.711 |  | 0.679
5 | A549 | 0.148 | 0.186 | 0.153 | 0.198 | 0.12 |  |  |  |  |  |  |  |  |  |  |  |  |  |  | 
6 | NCI-H1703 |  |  |  |  |  | 0.241 | 0.317 | 0.334 | 0.336 | 0.331 |  |  |  |  |  | 0.113 | 0.158 | 0.102 | 0.121 | 0.106
7 | SW 1573 | 0.351 | 0.344 | 0.341 | 0.354 | 0.383 | 1.06 | 0.954 | 1.03 | 1.09 | 0.807 | 0.739 | 0.748 | 0.815 | 0.727 | 0.687 |  |  |  |  | 
8 | COR-L 105 | 0.505 | 0.542 | 0.604 | 0.515 | 0.425 | 0.7 | 0.804 | 0.734 | 0.563 | 0.456 | 0.831 | 0.776 | 0.724 | 0.724 | 0.818 |  |  |  |  | 
9 | Calu-6 |  |  |  |  |  | 0.951 | 0.838 | 0.88 | 0.94 | 0.926 |  |  |  |  |  |  |  |  |  | 
10 | NCI-H2009 | 0.434 | 0.48 | 0.463 | 0.427 | 0.381 | 0.829 | 0.894 | 1.04 | 1 | 0.724 | 0.624 | 0.664 | 0.593 | 0.642 | 0.7 |  |  |  |  | 
11 | SK-LU-1 | 0.488 | 0.466 | 0.55 | 0.687 | 0.497 | 0.905 | 1.07 | 0.884 | 1.3 | 1.19 | 0.76 | 0.796 | 0.53 | 0.799 | 0.727 |  |  |  |  | 
12 | SK-MES-1 | 0.657 | 0.691 | 0.686 | 0.659 | 0.512 |  |  |  |  |  | 0.851 | 0.829 | 0.819 | 0.86 | 0.822 |  |  |  |  | 
13 | NCI-H2170 | 0.354 | 0.396 | 0.386 | 0.386 | 0.378 |  |  |  |  |  | 0.695 | 0.901 | 0.731 | 0.697 | 0.599 | 0.714 | 0.887 | 1.01 | 0.828 | 0.685
14 | NCI-H2342 | 0.71 | 0.567 | 0.615 | 0.614 | 0.573 |  |  |  |  |  | 0.749 | 0.753 | 0.721 | 0.716 | 0.745 | 0.51 | 0.402 | 0.427 | 0.508 | 0.456
15 | EBC-1 |  |  |  |  |  | 0.434 | 0.463 | 0.602 | 0.517 | 0.282 |  |  |  |  |  |  |  |  |  | 
16 | NCI-H522 | 0.653 |  | 0.635 | 0.775 | 0.714 |  |  |  |  |  | 0.91 | 1.03 | 1.01 | 0.924 | 0.849 | 0.892 | 0.874 | 0.894 | 0.643 | 0.795
17 | IA-LM |  |  |  |  |  | 0.803 |  | 0.705 | 0.511 | 0.494 | 0.884 | 0.954 | 0.942 |  | 0.78 |  |  |  |  | 
18 | NCI-H1793 | 0.329 | 0.357 | 0.405 | 0.349 | 0.262 |  |  |  |  |  | 0.633 | 0.616 | 0.771 | 0.632 | 0.8 | 0.473 | 0.348 | 0.434 | 0.283 | 0.202
19 | NCI-H358 | 0.316 | 0.346 | 0.359 | 0.363 | 0.327 |  |  |  |  |  | 0.633 | 0.653 | 0.518 | 0.662 | 0.624 | 0.524 | 0.491 | 0.548 | 0.509 | 0.414
20 | NCI-H520 | 0.633 | 0.648 | 0.664 | 0.584 | 0.457 | 0.586 | 0.505 | 0.56 | 0.786 | 0.235 | 0.624 | 0.694 | 0.779 | 0.851 | 0.838 |  |  |  |  | 
21 | NCI-H661 | 0.267 | 0.286 | 0.254 | 0.26 | 0.267 | 0.864 | 0.862 | 0.759 | 0.653 | 0.706 | 0.764 | 0.753 | 0.747 | 0.718 | 0.666 |  |  |  |  | 
22 | NCI-H1944 |  | 0.196 |  | 0.196 | 0.186 |  |  |  |  |  | 0.364 | 0.489 | 0.529 | 0.366 | 0.408 |  | 0.445 |  | 0.485 | 0.431
23 | NCI-H1299 |  |  |  |  |  | 0.973 | 0.983 | 0.91 | 1.04 | 0.885 |  |  |  |  |  |  |  |  |  | 
24 | NCI-H2228 | 0.347 | 0.302 | 0.335 | 0.398 | 0.215 | 0.892 | 0.761 | 0.771 | 0.925 | 0.714 | 0.343 | 0.514 | 0.42 | 0.412 | 0.824 |  |  |  |  | 
25 | NCI-H1792 | 0.216 | 0.258 | 0.233 | 0.363 | 0.191 | 0.954 | 0.75 | 0.784 | 0.81 | 0.898 |  |  |  |  |  | 0.733 | 0.502 | 0.611 | 0.39 | 0.547
26 | NCI-H2023 | 0.409 | 0.371 | 0.397 | 0.429 | 0.317 | 0.899 | 0.873 | 0.959 | 0.949 | 0.543 | 0.594 | 0.429 | 0.689 | 0.531 | 0.405 |  |  |  |  | 
